The values below are quoted from earlier work in patent US5482960A, “Nonpeptide endothelin antagonists” (Warner-Lambert Company, priority 1994, dated 1996).

Where a SMILES comes first, the peptide text is derived from it. [ ]: non-standard residue; d: D form.

For data set [1], the system named is endothelin. The note with it: rats; cited from earlier work.
The subject of data set [2] is porcine pulmonary arteries. The conditions noted are these: isolated, endothelium-intact porcine pulmonary arteries; cited from earlier work.
In data set [3] the test system is ETA. The note with it: oral; cited from earlier work.
For data set [4], the system named is small intestinal mucosa. The conditions noted are these: local intra-arterial, rats; cited from earlier work.
Data set [5] relates to liver. The note with it: cited from earlier work.
For data set [6], the system named is ET receptor. The conditions noted are these: allergic sheep; cited from earlier work.
The test system of data set [7] is ETA. The note with it: following subarachnoid hemorrhage; cited from earlier work.
Data set [8] deals with ETA. The conditions noted are these: mouse model of endotoxic shock; cited from earlier work.

`COc1cccc(Oc2c(NS(=O)(=O)c3ccc(C(C)(C)C)cc3)ncnc2OCCO)c1` [RO 46-2005]: the “efficacy in models of acute renal ischemia and subarachnoid hemorrhage” value in data set [1] is “effective in models of acute renal ischemia and subarachnoid hemorrhage in rats”.
As to “ET[1,3,11,15-A1a]: selective ETB agonist, linear analog (ASASSLMDKEAVYFAHLDIIW; Endothelin-1; UniProt P05305 53-73, looked up, variant C1A C3A C11A C15A)”, the vasorelaxation result in data set [2] is given as “caused vasorelaxation”.
With `Cc1noc(NS(=O)(=O)c2cccc3c(N(C)C)cccc23)c1C` [5-(Dimethylamino)-N-(3,4-dimethyl-5-isoxazolyl)-1-naphthalenesulfonamide], the antihypertensive effect result in data set [3] is given as “demonstrated an oral antihypertensive effect”.
Consider endothelin, for which the “small intestinal mucosal damage” value in data set [4] is on record as “induce small intestinal mucosal damage in rats in a dose-dependent manner”. The “vasoconstriction of the hepatic vasculature and hepatic glucose output” value in data set [5] is “sustained vasoconstriction of the hepatic vasculature and a significant increase in hepatic glucose output”.
On to `CC(C)C[C@@H]1NC(=O)[C@@H](C(C)C)NC(=O)[C@@H]2CCCN2C(=O)[C@@H](CC(=O)O)NC(=O)[C@@H](Cc2c[nH]c3ccccc23)NC1=O` [BQ-123] (cyclo(L[dW][dD]P[dV])), for which the “block of ET-1 induced bronchoconstriction and tracheal smooth muscle contraction” value in data set [6] was “block ET-1 induced bronchoconstriction and tracheal smooth muscle contraction”. For the same molecule, the early cerebral vasospasm entry in data set [7] is “prevent early cerebral vasospasm following subarachnoid hemorrhage”. The survival rate entry in data set [8] was “significantly increased the survival rate”.
